Experimental data as given in US20150152064A1, “METHODS AND COMPOSITIONS OF TREATING A FLAVIVIRIDAE FAMILY VIRAL INFECTION” (The Board of Trustees of the Leland Stanford Junior …, priority 2007, published 2015).

Experiment: in vitro
Type: cell-based
Conditions: human, huh-7.5 cells
Protocol: Luciferase assays are performed at about 48 hr to about 72 hr or 96 hr.
After a 5-30 min recovery at about 25° C., pulsed cells are diluted into 2-25 ml of prewarmed growth medium. […] Untreated cells are used as a negative control for water soluble compounds. […] Medium is changed daily.
Following about 48, about 72, or about 96 hrs of treatment, cells are incubated for 1-5 hrs at about 37° C. in the presence of 1-20% Alamar Blue reagent (TREK Diagnostic Systems).

## Cc1ccc(Cn2ncc3ccccc32)cc1 [Compound 185]
  viability at 5 µM: ≥ 90%
  viability at 10 µM: ≥ 90%
